Usually Ki stands for the equilibrium dissociation constant of an inhibitor or competing ligand from its target. Usually IC50 stands for the concentration needed to halve the response being measured.

Numbered stars: 1 amine (or outer) side, 2 acyl side, 3 side chain; on linkers, the order of the positions; unused ones are H or OH. Bridge positions count the residues as written; N and C are the ends. Square brackets hold non-standard residues; d marks the D form. Peptide text beside a SMILES is read from it. TBMB = c1c(C[*:1])cc(C[*:3])cc1C[*:2]; NMeR = CN[C@@H](CCCNC(=N)N)C(=O)O

The values below come from patent US11912794B2, “Modulation of structured polypeptide specificity” (BicycleRD Limited, priority 2011, dated 2024).

The nature of data set [1]: Plasma stability method 3 (95% plasma, quantitative LC/MS, Biofocus). Format: in vitro ADME, rat. Particulars: rat, plasma, 5 uM. On the procedure: To obtain plasma stability quantitatively, peptide stock solutions (1 mM in DMSO) were shipped to Biofocus, UK, who performed the analysis. Peptides were diluted to 100 uM with water, and diluted 1:20 in plasma (5 uM final concentration, with the plasma at 95%), sampled as appropriate, precipitated as above, and quantified using a Waters Xevo TQ-MS.

For another data set, the target named is T1, human plasma Kallikrein (Homo sapiens, UniProt P03952).
T1 construct: purchased Stratech, UK
Put plainly: Functional enzyme inhibition assay, fluorogenic substrate Z-PheArg-AMC. Format: biochemical.

Data set [2] in a line: Plasma stability profiling method 1 (35% plasma, MALDI-TOF, qualitative). Format: in vitro ADME, rat. The conditions noted are these: 35% rat plasma, 37 deg C, method 1, comparative estimate. The procedure, abridged: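 Peptide at 200 uM incubated at 37 deg C in 35% rat or human citrated plasma with 1×PBS, sampled at 0, 3, 24 h then daily up to 10 days. Parent mass tracked by MALDI-TOF at similar laser intensity; value is time until parent no longer detectable, qualitative only.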

Another data set deals with Human factor XIa (hfXIa) (Homo sapiens, UniProt P03951). The conditions noted are these: highest concentration tested (10 μM); Heinis et al. 2009; cited from earlier work.
In data set [3] the target is T2, rat plasma Kallikrein (Rattus norvegicus, UniProt P14272).
T2 construct: polyhistidine tag with proTEV cleavage site (pro-peptide) (N, cleaved yes); made in house; host or cells: HEK-293 (suspension-adapted)
The conditions noted are these: highest concentration tested (10 μM); Heinis et al. 2009; cited from earlier work.

Data set [4] has as its target Monkey plasma Kallikrein (mPK) (Macaca mulatta, UniProt A0A1D5Q7U7). Put plainly: Target specificity, Ki for orthologous protease. Format: biochemical.
Another data set has as its target Human thrombin (Homo sapiens, UniProt P00734). Particulars: highest concentration tested (10 μM); Heinis et al. 2009; cited from earlier work.
For data set [5], the target named is T2, rat plasma Kallikrein. Put plainly: Functional enzyme inhibition assay, fluorogenic substrate Z-PheArg-AMC. It is filed as biochemical.

T1 sequence (P03952 20-638): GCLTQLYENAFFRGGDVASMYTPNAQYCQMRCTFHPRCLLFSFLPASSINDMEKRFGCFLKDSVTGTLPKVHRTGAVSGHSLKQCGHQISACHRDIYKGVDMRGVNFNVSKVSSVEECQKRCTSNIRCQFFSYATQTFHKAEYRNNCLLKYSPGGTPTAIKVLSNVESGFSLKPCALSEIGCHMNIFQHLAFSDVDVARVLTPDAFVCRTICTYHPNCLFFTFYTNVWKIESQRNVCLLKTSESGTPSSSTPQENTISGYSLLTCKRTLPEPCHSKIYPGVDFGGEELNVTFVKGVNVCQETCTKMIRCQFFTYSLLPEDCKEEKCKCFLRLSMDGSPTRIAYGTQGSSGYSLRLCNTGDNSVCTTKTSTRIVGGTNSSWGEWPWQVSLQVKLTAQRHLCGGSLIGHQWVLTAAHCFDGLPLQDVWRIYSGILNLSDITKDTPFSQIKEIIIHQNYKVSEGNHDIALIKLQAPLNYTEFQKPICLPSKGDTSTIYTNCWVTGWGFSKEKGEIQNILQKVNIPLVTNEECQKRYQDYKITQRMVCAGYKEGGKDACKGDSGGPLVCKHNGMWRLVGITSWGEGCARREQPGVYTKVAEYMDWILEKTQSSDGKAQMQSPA
Monkey plasma Kallikrein (mPK), sequence (A0A1D5Q7U7 391-638): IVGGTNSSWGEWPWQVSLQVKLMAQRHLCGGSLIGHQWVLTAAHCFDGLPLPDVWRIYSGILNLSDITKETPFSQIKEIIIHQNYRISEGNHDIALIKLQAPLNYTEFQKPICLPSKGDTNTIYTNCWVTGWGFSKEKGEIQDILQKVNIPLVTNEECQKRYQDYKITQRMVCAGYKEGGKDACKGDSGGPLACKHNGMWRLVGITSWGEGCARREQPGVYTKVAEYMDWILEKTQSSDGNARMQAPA
T2 sequence (P14272 391-638 limits assumed): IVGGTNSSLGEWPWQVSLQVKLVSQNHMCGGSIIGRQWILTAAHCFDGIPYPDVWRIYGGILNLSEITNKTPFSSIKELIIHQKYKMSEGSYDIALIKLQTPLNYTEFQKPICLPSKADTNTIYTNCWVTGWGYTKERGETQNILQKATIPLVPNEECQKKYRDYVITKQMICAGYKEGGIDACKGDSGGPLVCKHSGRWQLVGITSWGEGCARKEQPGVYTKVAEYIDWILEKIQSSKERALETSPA
Human factor XIa (hfXIa), sequence (P03951 388-625 limits assumed): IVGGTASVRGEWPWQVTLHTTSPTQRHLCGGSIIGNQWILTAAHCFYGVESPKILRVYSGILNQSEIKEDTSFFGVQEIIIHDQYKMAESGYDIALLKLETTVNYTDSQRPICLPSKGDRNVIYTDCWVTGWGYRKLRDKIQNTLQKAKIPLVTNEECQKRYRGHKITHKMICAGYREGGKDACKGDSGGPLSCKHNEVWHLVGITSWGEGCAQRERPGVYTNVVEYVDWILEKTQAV
Human factor XIa (hfXIa), sequence (P03951 19-387 partner limits assumed): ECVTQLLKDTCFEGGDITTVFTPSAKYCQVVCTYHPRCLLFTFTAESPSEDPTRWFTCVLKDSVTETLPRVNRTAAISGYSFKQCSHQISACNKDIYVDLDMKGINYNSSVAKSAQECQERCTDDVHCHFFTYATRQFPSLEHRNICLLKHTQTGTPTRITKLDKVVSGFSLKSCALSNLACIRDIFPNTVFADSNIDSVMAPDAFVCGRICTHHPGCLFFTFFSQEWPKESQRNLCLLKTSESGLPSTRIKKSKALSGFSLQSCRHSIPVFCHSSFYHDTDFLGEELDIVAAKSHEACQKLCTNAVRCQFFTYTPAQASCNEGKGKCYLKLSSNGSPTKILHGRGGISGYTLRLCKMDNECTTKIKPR

With `CC(=O)N[C@H]1CSCc2cc3cc(c2)CSC[C@H](NC(=O)[C@H](CCCNC(=N)N)N(C)C(=O)[C@H](Cc2ccc(O)cc2)NC(=O)[C@@H]2CCCN2C(=O)[C@H](Cc2ccccc2)NC(=O)[C@H](CO)NC1=O)C(=O)N[C@@H](CC(C)C)C(=O)N[C@@H](Cc1c[nH]cn1)C(=O)N[C@@H](CCC(N)=O)C(=O)N[C@@H](CC(=O)O)C(=O)N[C@@H](CC(C)C)C(=O)N[C@H](C(N)=O)CSC3` [Ac-(06-34-18) Phe2 Tyr4 NMeArg5] (Ac-CSFPY[NMeR]CLHQDLC-NH2; linker 1-7-13 via TBMB), the “t1/2 (hrs) in rat plasma” value in data set [1] is greater than 20 h. In addition, affinity at human plasma Kallikrein (Ki (nM) (human kallikrein), Ac-06-34-18(TMB)-NH2 series) was put at a Ki of 3.56 nM. In data set [2], the “Observable in rat plasma, for days” value is recorded as greater than 10 days.
For `CC(C)C[C@@H]1NC(=O)[C@H](C)NC(=O)[C@H](CCC(=O)O)NC(=O)[C@H](CC(=O)O)NC(=O)[C@H](C)NC(=O)[C@@H]2CCCN2C(=O)[C@@H]2CSCc3cc(cc(c3)CSC[C@@H](C(=O)NCC(N)=O)NC1=O)CSC[C@H](NC(=O)[C@H](C)N)C(=O)N[C@@H](CO)C(=O)N[C@@H](CC(=O)O)C(=O)N[C@@H](CCCNC(=N)N)C(=O)N[C@@H](Cc1ccccc1)C(=O)N[C@@H](CCCNC(=N)N)C(=O)N[C@@H](CC(N)=O)C(=O)N2` [PK15] (H-ACSDRFRNCPADEALCG-NH2; linker 2-9-16 via TBMB), the “inhibition of human factor XIa (hfXIa)” value at Human factor XIa (hfXIa) is listed as “did not inhibit”. In addition, the “inhibition of rat PK” value on rat plasma Kallikrein [3] is listed as “did not inhibit”. Besides, the Ki came to 3 nM at human plasma Kallikrein (Ki Human plasma kalikrein (hPK), Table 1, means of at least two measurements) and 4 nM in data set [4]. Besides, at Human thrombin, the inhibition of thrombin entry is listed as “did not inhibit”.
In the case of `CC(C)[C@@H]1NC(=O)[C@H](CCCNC(=N)N)NC(=O)[C@@H]2CSCc3cc(cc(c3)CSC[C@@H](C(=O)N[C@@H](C)C(N)=O)NC(=O)[C@H](CC(N)=O)NC1=O)CSC[C@H](NC(=O)[C@H](C)N)C(=O)N[C@@H](Cc1ccccc1)C(=O)N[C@@H](CCCCN)C(=O)N[C@@H](C)C(=O)N2` [Peptide 3B3], affinity in data set [4] was put at a Ki of 11 nM.
Consider `CSCC[C@@H]1NC(=O)[C@@H]2CSCc3cc(cc(c3)CSC[C@@H](C(=O)N[C@@H](C)C(N)=O)NC(=O)[C@H](CC(C)C)NC(=O)[C@H](CC(=O)O)NC(=O)[C@H](CCC(N)=O)NC(=O)[C@H](Cc3c[nH]cn3)NC1=O)CSC[C@H](NC(=O)[C@H](C)N)C(=O)N[C@@H](CCCNC(=N)N)C(=O)N[C@@H](Cc1c[nH]c3ccccc13)C(=O)N1CCC[C@H]1C(=O)N[C@@H](C)C(=O)N[C@@H](CCCNC(=N)N)C(=O)N2` [Peptide 06-34-04] (H-ACRWPARCMHQDLCA-NH2; linker 2-8-14 via TBMB; N-terminus and C-terminus assumed), for which the IC50 at rat plasma Kallikrein [5] was determined as 0.56 nM.
Take `CC(C)C[C@@H]1NC(=O)[C@H](CC(=O)O)NC(=O)[C@H](CCC(N)=O)NC(=O)[C@H](Cc2c[nH]cn2)NC(=O)[C@H](CC(C)C)NC(=O)[C@@H]2CSCc3cc(cc(c3)CSC[C@@H](C(=O)N[C@@H](C)C(N)=O)NC1=O)CSC[C@H](NC(=O)[C@H](C)N)C(=O)N[C@@H](CO)C(=O)N[C@@H](Cc1c[nH]c3ccccc13)C(=O)N1CCC[C@H]1C(=O)N[C@@H](C)C(=O)N[C@@H](CCCNC(=N)N)C(=O)N2` [Peptide 06-34-18] (H-ACSWPARCLHQDLCA-NH2; linker 2-8-14 via TBMB): the IC50 on rat plasma Kallikrein [5] was found to be 0.56 nM; on human plasma Kallikrein it was 0.07 nM.
Compound `C[C@H](N)C(=O)N[C@H]1CSCc2cc3cc(c2)CSC[C@H](NC(=O)[C@H](CCCNC(=N)N)NC(=O)[C@H](C)NC(=O)[C@@H]2CCCN2C(=O)[C@H](Cc2c[nH]c4ccccc24)NC(=O)[C@H](CCCNC(=N)N)NC1=O)C(=O)N[C@@H]([C@@H](C)O)C(=O)N[C@@H](Cc1c[nH]cn1)C(=O)N[C@@H](CCC(N)=O)C(=O)N[C@@H](CC(N)=O)C(=O)N[C@@H](Cc1ccc(O)cc1)C(=O)N[C@H](C(=O)N[C@@H](C)C(N)=O)CSC3` [Peptide 06-54] (H-ACRWPARCTHQNYCA-NH2; linker 2-8-14 via TBMB; N-terminus and C-terminus assumed) registered a Ki in data set [4] of 6 nM.
